Assay results as given in paper PMC11714206, “Massively Parallel Screening of Toll/Interleukin‐1 Receptor (TIR)‐Derived Peptides Reveals Multiple Toll‐Like Receptors (TLRs)‐Targeting Immunomodulatory Peptides” (Advanced Science, 2024).
Values belong to the sequence of their own block, whether it stands above or below them. Where no end group is shown, it is not given here.

Columns and labels:
Serum stability analysis = assay type: in vitro ADME; settings: human serum (Sigma H4522), 1 mM peptide in water mixed 1:1 (v/v) with serum, 37 °C, SDS‐PAGE, Coomassie band intensity (ImageJ); for half-life at 0.5 mM: 0–72 h
Procedure: (§1) Figure 6 Molecular characterization of TDIPs. (a) Co‐immunoprecipitation of TIR domains and TDIPs. Lysates of HEK293T cells expressing FLAG‐tagged TIR domains were incubated with the indicated TDIPs. Peptides were blotted with an antibody against the penetratin sequence. Created with BioRender.com. (b) Fluorescence polarization binding assay of the Cy5‐labeled TDIP1 against TIR domains of Myd88, TRAM, and MAL. Error bars represent ± SD (n = 3). (c) Human serum stability (half‐life) of the TDIPs was measured. The percentage of the remaining peptide was quantified up to 72 h. (d) The secondary structure of the selected TDIPs was determined by circular dichroism. […] (e) TDIP1 and its truncates were compared for inhibition of TLR4 signaling by using HEK‐Blue^TM hTLR4 cells. Data are presented as mean ± SD. ^****p < 0.0001. All significance is versus the LPS‐treated CP group. n.s., not significant.
The first step of the serum stability analysis was performed as previously described^[ [60] ^] with a minor modification. Human serum (Sigma‐Aldrich, H4522) was thawed on ice and centrifuged at 18 000 × g for 10 min at 4 °C to remove lipids. The supernatant was incubated at 37 °C for 15 min to activate the proteins. Each peptide was prepared at a concentration of 1 mM in ultrapure water and mixed with human serum in a 1:1 (v/v) ratio. The mixed solutions were incubated at 37 °C for various periods (0, 1, 3, 6, 12, 24, 48, and 72 h). A mixture of ultrapure water and human serum was used as the blank. A total of 3 µg of the peptide was loaded on an SDS–polyacrylamide gel and stained with InstantBlue Coomassie Protein Stain (Abcam). The intensity of the remaining peptide bands was quantified using ImageJ and plotted.

TIR domain of MyD88 = molecular target: T1, TIR domain of MyD88 (Homo sapiens, UniProt Q99836); assay: Fluorescence polarization (FP) assay, MyD88 TIR; assay type: binding; settings: Cy5‐labeled TDIP1 50 nM, TIR domain diluted 1:1 from 40 µM, 30 min RT, ± SD, n = 3, read-out: apparent Kd against MyD88
T1 construct: MyD88 (residues 148–296); 6xHis; made in house; host or cells: E. coli BL21 (DE3)
T1 sequence (Q99836 148-296): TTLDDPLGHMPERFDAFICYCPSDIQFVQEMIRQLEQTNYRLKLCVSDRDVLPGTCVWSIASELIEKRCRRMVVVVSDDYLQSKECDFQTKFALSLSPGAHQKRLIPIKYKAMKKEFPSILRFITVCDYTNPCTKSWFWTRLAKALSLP
Procedure: as §1
(§2) Fluorescence polarization assays were carried out using a 384‐well black non‐binding microplate (Corning, CLS4514). TDIP1 peptide was synthesized by ANYGEN with N‐terminal Cy5 at >95% purity. The lyophilized peptide was reconstituted in ultrapure water (Invitrogen) to a concentration of 1 mM. The peptide was diluted with 10× PBS to make a final solution of 100 nM. […] After mixing the samples, the plate was incubated for 30 min at RT and read using an Infinite M1000 (Tecan, Mannedorf, Switzerland).

TIR domain of MAL = molecular target: T2, TIR domain of MAL (Homo sapiens, UniProt P58753); assay: Fluorescence polarization (FP) assay, MAL TIR; assay type: binding; settings: Cy5‐labeled TDIP1 50 nM, TIR domain diluted 1:1 from 40 µM, 30 min RT, ± SD, n = 3, read-out: apparent Kd against MAL
T2 construct: MAL (residues 79–221); 6xHis; made in house; host or cells: E. coli BL21 (DE3)
T2 sequence (P58753 79-221): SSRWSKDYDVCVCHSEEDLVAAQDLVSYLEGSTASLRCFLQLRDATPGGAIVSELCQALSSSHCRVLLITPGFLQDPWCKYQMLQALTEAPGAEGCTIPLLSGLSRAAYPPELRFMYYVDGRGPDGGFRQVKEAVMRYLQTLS
Procedure: as §1, §2

TIR domain of TRAM = molecular target: T3, TIR domain of TRAM (Homo sapiens, UniProt Q86XR7); assay: Fluorescence polarization (FP) assay, TRAM TIR; assay type: binding; settings: Cy5‐labeled TDIP1 50 nM, TIR domain diluted 1:1 from 40 µM, 30 min RT, ± SD, n = 3, read-out: apparent Kd against TRAM
T3 construct: purified TIR domains of MyD88, TRAM, and MAL
T3 sequence (Q86XR7 73-229 limits assumed): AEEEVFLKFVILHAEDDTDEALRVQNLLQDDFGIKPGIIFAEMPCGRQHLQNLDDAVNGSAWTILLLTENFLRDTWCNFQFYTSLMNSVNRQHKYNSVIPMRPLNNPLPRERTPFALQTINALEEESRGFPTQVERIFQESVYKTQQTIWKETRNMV
Procedure: as §1, §2

MyD88^TIR = molecular target: T4, MyD88^TIR (Homo sapiens, UniProt Q99836); assay: T‐Surf phage library (P8 and P3) selection against MyD88^TIR, four rounds, NGS read counts; assay type: binding; settings: for P3_MyD88 Rank (after) / P3_MyD88 Rank (before): P3 library; for Rank (after): P3_MyD88: rank by count after grouping; for Rank (before): P3_MyD88: rank by count before grouping; for Population: 4th round of selection against MyD88 TIR, share of NGS reads
T4 construct: MyD88 (residues 148–296); 6xHis; made in house; host or cells: E. coli BL21 (DE3)
T4 sequence (Q99836 148-296): as the sequence (Q99836 148-296) above
In short: (§3)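 Four panning rounds on TIR domain adsorbed at 5 µg mL^−1; binding 1 h at 20–22 °C, elution with 100 mM HCl. Output: NGS read counts of round‐4 pools versus naïve library.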

MAL^TIR = molecular target: T5, MAL^TIR (Homo sapiens, UniProt P58753); assay: T‐Surf phage library (P8 and P3) selection against MAL^TIR, four rounds, NGS read counts; assay type: binding; settings: for P8_MAL Rank (after) / P8_MAL Rank (before): P8 library; for P3_MAL Rank (after) / P3_MAL Rank (before): P3 library; for Population: P3_MAL pool: P3 T-Surf phage library, 4th round of selection against MAL TIR, share of NGS reads; for Rank (after): P3_MAL: rank by count after grouping; for Rank (before): P3_MAL: rank by count before grouping
T5 construct: MAL (residues 79–221); 6xHis; made in house; host or cells: E. coli BL21 (DE3)
T5 sequence (P58753 79-221): as the sequence (P58753 79-221) above
In short: as §3

[1] = selection against MyD88, rank after grouping
[2] = selection against MyD88, rank before grouping
[3] = selection against MAL TIR, rank by count after grouping
[4] = selection against MAL TIR, rank by count before grouping
[5] = selection against MAL, rank after grouping
[6] = selection against MAL, rank before grouping
[7] = P3_MyD88 pool: P3 T-Surf phage library
[8] = selection against MyD88 TIR, rank by count after grouping
[9] = selection against MyD88 TIR, rank by count before grouping
[10] = 4R selection against MyD88, rank after grouping
[11] = 4R selection against MyD88, rank before grouping
[12] = 4R selection against MAL, rank after grouping
[13] = 4R selection against MAL, rank before grouping

Sequence: RQIKIWFQNRRMKWKKLFFWESLKQLLRSDGR [TDIP6]
remaining peptide after 48 h of incubation in human serum (Serum stability analysis): up to 50%

Sequence: RQIKIWFQNRRMKWKKWFYERLVSLILRDTKV [TDIP1]
Kd (TIR domain of MyD88): 2800 ± 460 nM
remaining peptide after 48 h of incubation in human serum (Serum stability analysis): up to 50%
Kd (TIR domain of MAL): 4490 ± 720 nM
Kd (TIR domain of TRAM): 1460 ± 110 nM

Sequence: RQIKIWFQNRRMKWKKLVAHEISKKMKIFATI [TDIP20]
half-life at 0.5 mM (Serum stability analysis): < 1 h

Sequence: RQIKIWFQNRRMKWKKTFLGHLYNALVQAGIH [TDIP5]
half-life at 0.5 mM (Serum stability analysis): ~6 h

Sequence: NQWRNALTAAANLRL
P3_MyD88 Rank (after) (MyD88^TIR; [1]): 507
P3_MyD88 Rank (before) (MyD88^TIR; [2]): 3498
P3_MAL Rank (after) (MAL^TIR; [5]): 550
P3_MAL Rank (before) (MAL^TIR; [6]): 3366

Sequence: YAFTGHLHRYLVQREPAGN
P3_MyD88 Rank (after) (MyD88^TIR; [8]): 196
P3_MyD88 Rank (before) (MyD88^TIR; [9]): 1511
Rank (after) (MAL^TIR): 413
Rank (before) (MAL^TIR): 1402

Sequence: SSFREGLWHLLELSKK
Population (MyD88^TIR; [7]): 0.00553%
Population (MAL^TIR): 0.00413%

Sequence: NQWKLALTKVANLV
P3_MyD88 Rank (after) (MyD88^TIR; [10]): 579
P3_MyD88 Rank (before) (MyD88^TIR; [11]): 3536
P3_MAL Rank (after) (MAL^TIR; [12]): 638
P3_MAL Rank (before) (MAL^TIR; [13]): 3421

Sequence: YLKWKEALHQFHSWV
P3_MyD88 Rank (after) (MyD88^TIR; [10]): 601
P3_MyD88 Rank (before) (MyD88^TIR; [11]): 1609
P3_MAL Rank (after) (MAL^TIR; [12]): 662
P3_MAL Rank (before) (MAL^TIR; [13]): 1520

Next, values leading:

P3_MyD88 Rank (after) (MyD88^TIR; [1]): 502
P3_MyD88 Rank (before) (MyD88^TIR; [2]): 1556
P8_MAL Rank (after) (MAL^TIR; [3]): 227
P8_MAL Rank (before) (MAL^TIR; [4]): 799
Sequence: YASSSWALDELLRILY

Rank (after) (MyD88^TIR): 141
Rank (before) (MyD88^TIR): 635
P3_MAL Rank (after) (MAL^TIR; [5]): 511
P3_MAL Rank (before) (MAL^TIR; [6]): 1972
Sequence: DSQSSRFKDDADLVG

Population (MyD88^TIR; [7]): 0.00291%
Population (MAL^TIR): 0.0259%
Sequence: SIFREGLWRLLELSKK

Rank (after) (MyD88^TIR): 184
Rank (before) (MyD88^TIR): 1269
P3_MAL Rank (after) (MAL^TIR; [3]): 198
P3_MAL Rank (before) (MAL^TIR; [4]): 1055
Sequence: NQWRNALYEAANLS

Population (MyD88^TIR; [7]): 0.00349%
Rank (after) (MAL^TIR): 134
Rank (before) (MAL^TIR): 489
Sequence: KEVEGWRDALTKVANLV

P3_MyD88 Rank (after) (MyD88^TIR; [8]): 269
P3_MyD88 Rank (before) (MyD88^TIR; [9]): 1069
Rank (after) (MAL^TIR): 143
Rank (before) (MAL^TIR): 415
Sequence: LKWGDPYFGANCVMR

Population (MyD88^TIR; [7]): 0.00466%
Population (MAL^TIR): 0.00413%
Sequence: SSFHEGLWRLLELSKK

P3_MyD88 Rank (after) (MyD88^TIR; [8]): 213
P3_MyD88 Rank (before) (MyD88^TIR; [9]): 1675
P3_MAL Rank (after) (MAL^TIR; [5]): 500
P3_MAL Rank (before) (MAL^TIR; [6]): 1548
Sequence: YTALTNSGFHTFREM

Rank (after) (MyD88^TIR): 99
Rank (before) (MyD88^TIR): 383
Rank (after) (MAL^TIR): 122
Rank (before) (MAL^TIR): 331
Sequence: LKVESWRQALEKRAN

Population (MyD88^TIR; P8_MyD88 pool: P8 T-Surf phage library): 0.00771%
P8_MAL Rank (after) (MAL^TIR; [3]): 200
P8_MAL Rank (before) (MAL^TIR; [4]): 2049
Sequence: ELDFSHFWLFDGQAGGEA
